Earlier results as cited in patent US6903136B2, “Food supplements containing 4-hydroxyisoleucine and creatine” (Experimental and Applied Sciences, Inc., priority 2002, dated 2005).

Legend:
insulinotropic activity [1] = test system: insulinotropic activity
secretion of insulin = details: in vitro
insulinotropic activity [2] = details: normal and diabetic rats; intravenous and oral delivery

| SMILES | activity as an insulinotropic agent (insulinotropic activity [1]) | activity as an insulinotropic agent relative to leucine, isoleucine, or homoserine (insulinotropic activity [1]; fold more active than leucine, isoleucine, or homoserine) | effect on secretion of insulin (secretion of insulin; normal blood glucose levels) | insulinotropic activity (secretion of insulin; supranormal glucose levels) | insulinotropic activity in vivo (insulinotropic activity [2]) |
| --- | --- | --- | --- | --- | --- |
| CC(O)C(C)C(N)C(=O)O (single isomer, unassigned) [(2R, 3R, 4S) isomer] | inactive |  |  |  |  |
| C[C@@H]([C@H](C)O)[C@H](N)C(=O)O (single isomer, unassigned) [(2S, 3R, 4S) stereoisomer of 4OH-Ile] | active | at least 15 × |  |  |  |
| CC(O)[C@H](C)[C@H](N)C(=O)O (stereo partly shown) [Example 4OH-Ile, 4-Hydroxyisoleucine] |  |  | does not affect the secretion of insulin | strong insulinotropic activity | verified the insulinotropic activity in vivo |
| CC1OC(=O)C(N)C1C (stereo not shown) [lactone form of 4OH-Ile] | not active |  |  |  |  |
